Activity calls are given as the source filed them. The calls are words filed in the database; no cut-off is given here.
molecular target: Transient receptor potential cation channel subfamily V member 1 (Rattus norvegicus) (UniProt O35433); assay: Agonist activity at TRPV1 in rat dorsal root ganglia neurons by 45Ca2+ uptake assay
Sequence (O35433 whole entry): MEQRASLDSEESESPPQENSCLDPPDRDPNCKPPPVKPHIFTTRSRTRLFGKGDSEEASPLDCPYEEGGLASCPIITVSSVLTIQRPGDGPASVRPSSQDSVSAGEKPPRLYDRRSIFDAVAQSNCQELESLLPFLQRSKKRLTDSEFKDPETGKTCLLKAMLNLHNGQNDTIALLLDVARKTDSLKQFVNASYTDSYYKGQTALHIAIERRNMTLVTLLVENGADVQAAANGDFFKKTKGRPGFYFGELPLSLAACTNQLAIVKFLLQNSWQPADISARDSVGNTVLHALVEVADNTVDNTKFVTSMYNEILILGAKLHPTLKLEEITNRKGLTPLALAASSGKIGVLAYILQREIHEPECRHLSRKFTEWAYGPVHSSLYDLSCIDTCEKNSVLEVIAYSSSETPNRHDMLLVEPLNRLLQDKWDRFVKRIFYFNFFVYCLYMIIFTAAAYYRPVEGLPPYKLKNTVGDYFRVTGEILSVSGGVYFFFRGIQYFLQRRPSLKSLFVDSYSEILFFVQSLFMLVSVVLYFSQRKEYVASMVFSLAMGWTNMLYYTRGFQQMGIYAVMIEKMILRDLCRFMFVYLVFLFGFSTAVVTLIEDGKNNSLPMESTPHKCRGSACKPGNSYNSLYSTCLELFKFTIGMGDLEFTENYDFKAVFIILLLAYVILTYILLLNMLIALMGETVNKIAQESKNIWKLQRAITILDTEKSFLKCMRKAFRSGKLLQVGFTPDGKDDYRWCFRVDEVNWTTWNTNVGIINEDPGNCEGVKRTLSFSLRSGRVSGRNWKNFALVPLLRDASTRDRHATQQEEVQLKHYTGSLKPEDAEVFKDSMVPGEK

SMILES	Activity
CCOC(=O)[C@H]1[C@H]2COc3ccc(Cl)cc3[C@@H]2N2C(=O)c3ccc(C)cc3NC(=O)[C@@]12C	Active
COc1cc(CNC(=O)CCCC/C=C/C(C)C)ccc1O	Active

molecular target: Transient receptor potential cation channel subfamily V member 1 (Rattus norvegicus) (UniProt O35433); assay: Partial agonist activity at TRPV1 in rat dorsal root ganglia neurons by 45Ca2+ uptake assay

SMILES	Activity
CCOC(=O)[C@@H]1[C@H]2COc3ccc(F)cc3[C@@H]2N[C@]1(C)C(=O)Nc1cc(C)ccc1C(=O)OC	Active
CCOC(=O)[C@@H]1[C@H]2COc3ccc(Cl)cc3[C@@H]2N[C@]1(C)C(=O)Nc1cc(C)ccc1C(=O)OC	Active
CCOC(=O)[C@@H]1[C@H]2COc3ccc(OC)cc3[C@@H]2N[C@]1(C)C(=O)Nc1cc(C)ccc1C(=O)OC	Active
CCOC(=O)[C@@H]1[C@H]2COc3c(F)cccc3[C@@H]2N[C@]1(C)C(=O)Nc1cc(C)ccc1C(=O)OC	Active

Source: ChEMBL document CHEMBL3112431, “Constrained TRPV1 agonists synthesized via silver-mediated intramolecular azo-methine ylide cycloaddition of α-iminoamides” (Bioorg Med Chem Lett, 2014)
